Legend:
[1] = system: IgE antibody present in the serum of a latex-allergic patient; assay: Latex epitope mapping (1): array of overlapping 15-amino-acid peptides; type: binding, human; conditions: 15-residue peptides; serum of 17 latex-allergic patients; chemiluminescence difference from N2nd value of at least 35,000 = bound
Protocol: Epitope mapping was carried out using a library of overlapping peptides (length: 15 amino acids) corresponding to the amino acid sequences identified as allergy components of latex. Specifically, the library of overlapping peptides was prepared on the basis of the amino acid sequences of SEQ ID NOs: 2 and 4.
The peptides to be synthesized were shifted by 10 amino acids.
For preparation of peptide arrays, the Intavis CelluSpots™ technique was used. Specifically, the peptide arrays were prepared by the following procedure: (1) synthesizing peptides of interest on amino-modified cellulose disks using an automated chemical synthesis apparatus (Intavis MultiPep RS), (2) dissolving the amino-modified cellulose disks to obtain a cellulose-bound peptide solution, and (3) spotting the cellulose-bound peptides onto coated glass slides. The details of each procedure are as described below.
The presence or absence of binding, to each peptide fragment, of an IgE antibody present in the serum of a latex-allergic patient was measured through antigen-antibody reaction using the peptide arrays. The measurement was carried out according to the following procedure.
(1) The peptides were shaken at room temperature for 1 hour in Pierce Protein-Free (PBS) Blocking Buffer (produced by Thermo Fisher Scientific). (2) The peptide arrays were shaken at overnight at 4° C. in 2% serum/Pierce Protein-Free (PBS) Blocking Buffer (produced by Thermo Fisher Scientific). (3) The peptide arrays were washed with PBST (a PBS buffer containing […] Tween 20 nonionic surfactant) for 5 minutes (×3). (4) Anti-human IgE antibody-HRP (1:20,000, Pierce Protein-Free (PBS) Blocking Buffer (produced by Thermo Fisher Scientific)) was added thereto, and the peptide arrays were shaken at room temperature for 1 hour. (5) The peptide arrays were washed with PBST for 5 minutes (×3). (6) Pierce ECL Plus Western Blotting Substrate (produced by Thermo Fisher Scientific) was added thereto, and the peptide arrays were shaken at room temperature for 5 minutes. (7) The chemiluminescence of the peptides treated as described above in (1) to (6) was measured using Amersham Imager 600.
Chemiluminescence intensity in images obtained by the measurement described above in (7) was converted into a numeric value using ImageQuant TL (GE Healthcare). The second highest value among numeric values determined from images obtained from results about the serum of 4 non-latex-allergic subjects was defined as the N2nd value. The N2nd value of each peptide was subtracted from numeric values determined from images obtained from results about the serum of 17 patients (17 latex-allergic patients; respectively given patient Nos. P1-P17). It was determined that a peptide having a value of at least 35,000 as the difference was a peptide bound to an IgE antibody in a patient-specific manner.

[2] = system: IgE antibody present in the serum of a patient (latex-allergic); assay: Latex epitope mapping (2) overlapping 10-residue peptides and (3) alanine/glycine scanning on peptide arrays; type: binding, human
Protocol: On the basis of the sequences (SEQ ID NOs: 5, 25, 35, 68 and 83) of the peptides bound to an IgE antibody in serum in a patient-specific manner as described above in (A), a library of overlapping peptide fragments (length: 10 amino acids) was prepared using the sequences of the peptides and sequences in which sequences were added so as to flank each peptide in the amino acid sequences of allergy components comprising the sequences of the peptide. Epitope mapping was carried out using the library.
The peptides to be synthesized were shifted by one amino acid.
The library was prepared by the same procedure as described above in (A), and the presence or absence of binding of an IgE antibody present in the serum of a patient to each peptide fragment was measured by the same technique as described above. Numeric values determined from images obtained as a result of carrying out only the procedures (1) and (4) to (6) described above in the subsection titled (3) Spotting of cellulose-bound peptide solution were used as control values. The control value of each peptide was subtracted from numeric values determined from images obtained from results about the serum of patients, and the obtained value of the difference was compared with values of the peptides serving as the basis of overlapping.
Chemiluminescence intensity in images obtained by measurement was converted into a numeric value in the same manner as in (A). Numeric values determined from images obtained as a result of carrying out only the procedures (1) and (4) to (6) described above in the subsection titled (3) Spotting of cellulose-bound peptide solution (secondary antibody measurement values) were used as control values. The control value of each peptide was subtracted from numeric values determined from images obtained from results about the serum of patients. When values obtained using the sequences (SEQ ID NOs: 5, 25, 35, 68 and 83) serving as the basis of overlapping were defined as 100%, it was determined that: a peptide having a value of the difference that was less than 30% had no binding activity against IgE antibodies; a peptide having a value of the difference that was 30% or more and less than 50% had binding activity, albeit poor, against IgE antibodies; a peptide having a value of the difference that was 50% or more and less than 70% had binding activity, albeit somewhat poor, against IgE antibodies; and a peptide having a value of the difference that was 70% or more had equivalent or good binding activity against IgE antibodies and was thus a peptide had remaining binding activity against IgE antibodies.
From the amino acid sequences identified above in (A), a library of peptide fragments in which amino-terminal amino acids were substituted one by one by alanine (or glycine when the original amino acid was alanine) according to a technique called alanine/glycine scanning (Non Patent Literature 5) was prepared by the same technique as described above. The presence or absence of binding of an IgE antibody present in the serum of a patient to each peptide fragment was measured by the same technique as described above.
Chemiluminescence intensity in images obtained by measurement was converted into a numeric value in the same manner as in (A). Numeric values determined from images obtained from secondary antibody measurement values were used as control values. The control value of each peptide was subtracted from numeric values determined from images obtained from results about the serum of 17 patients (patient Nos. P1-P17). […]

[3] = serum of latex-allergic patient P3
[4] = serum of latex-allergic patient P17
[5] = serum of latex-allergic patient P7
[6] = serum of latex-allergic patient P1
[7] = serum of latex-allergic patient P13
[8] = serum of latex-allergic patient P12
[9] = serum of latex-allergic patient P5

In the case of “KPYDKPLNDRYSYKN (epitope) [SEQ ID NO: 25]”, the “patient-specific binding of IgE antibody to peptide” value (“patient-specific binding” for short) [1] is reported as “confirmed to bind”.
With “WSKFYDDKNGYSSSI (epitope) [SEQ ID NO: 83]” the “patient-specific binding” value [1] was “confirmed to bind”.
In the case of “PLTEDNFVIQKPYDK (epitope) [SEQ ID NO: 5]”, the “patient-specific binding” value [1] is reported as “confirmed to bind”.
For “DLKSYKSNSVATDIY (epitope) [SEQ ID NO: 35]”, the “patient-specific binding” value [1] was “confirmed to bind”.
With “VNVIHKVGKGEITVF (epitope) [SEQ ID NO: 68]” the “patient-specific binding” value [1] was “confirmed to bind”.
With 49 (KSNSVATD; epitope) [compound 49] the “epitope sequence grade for binding to IgE antibody” value (shortened to “epitope sequence grade for binding”) ([2]; serum of latex-allergic patient P8) was “More preferably”.
With 37 (SYKSNSVATD; epitope) [compound 37] the “epitope sequence grade for binding” value [2, 3] was “Further preferably”.
115 (WSKFYDDKN; epitope) [compound 115] was tested, and the “epitope sequence grade for binding” value [2, 4] was “More preferably”.
In the case of “110 (YDDKNGYSSS; epitope) [compound 110]”, the “epitope sequence grade for binding” value [2, 5] is reported as “Preferably”.
With 84 (SKFYDDKNG; epitope) [compound 84] the “epitope sequence grade for binding” value [2, 6] was “More preferably”.
39 (SYKSNSV; epitope) [compound 39] was tested, and the “epitope sequence grade for binding” value [2, 3] was “Preferably”.
In the case of 30 (KPLN; epitope) [compound 30], the “epitope sequence grade for binding” value [2, 7] is reported as “Key”.
For 78 (KVGK; epitope) [compound 78], the “epitope sequence grade for binding” value [2, 5] was “Key”.
119 (DKNGYSSS; epitope) [compound 119] was tested, and the “epitope sequence grade for binding” value [2, 4] was “Key”.
With 17 (EDNFVIQKPY; epitope) [compound 17] the “epitope sequence grade for binding” value [2, 8] was “More preferably”.
For 19 (QKPY; epitope) [compound 19], the “epitope sequence grade for binding” value [2, 8] was “Key”.
For 80 (KVGKGEITVF; epitope) [compound 80], the “epitope sequence grade for binding” value [2, 4] was “More preferably”.
74 (VIHKVGKGEI; epitope) [compound 74] was tested, and the “epitope sequence grade for binding” value [2, 9] was “Further preferably”.
20 (QKPYDK; epitope) [compound 20] was tested, and the “epitope sequence grade for binding” value [2, 7] was “Key”.
70 (HKVGKG; epitope) [compound 70] was tested, and the “epitope sequence grade for binding” value [2, 6] was “Key”.
41 (SYKSNSV; epitope) [compound 41] was tested, and the “epitope sequence grade for binding” value ([2]; serum of latex-allergic patient P4) was “More preferably”.
33 (KPYDKPLNDR; epitope) [compound 33] was tested, and the “epitope sequence grade for binding” value [2, 4] was “Preferably”.
With 79 (KVGK; epitope) [compound 79] the “epitope sequence grade for binding” value ([2]; serum of latex-allergic patient P9) was “Key”.
For 44 (SYKSNS; epitope) [compound 44], the “epitope sequence grade for binding” value [2, 9] was “Preferably”.
92 (KFYDDKNGYS; epitope) [compound 92] was tested, and the “epitope sequence grade for binding” value ([2]; serum of latex-allergic patient P2) was “More preferably”.
